Results taken from patent US20060172993A1 (priority 2002, published 2006).
Marks after values point to notes of the source that are not given here.

What was measured:
[1] = tested on: Patients diagnosed with Alzheimer's Disease; test: CIBIC-plus (Clinician's Interview Based Impression of Change Plus Family Input); assay type: in vivo, human
Description: (§1) Subjects in the Placebo group received 21 weeks (5 months) of placebo medication.
The CIBIC-plus score was a second primary variable. An independent, experienced and properly trained clinician provided a global impression of the subject's deterioration or improvement over the course of the trial, based on separate interviews with the subject and caregivers. If helpful, the CIBIC rater audiotaped or videotaped the baseline interview for future reference.
The CIBIC-plus was performed at visit 2, 3, 4, and 5 (baseline, week 4, week 13, and month 5 or upon early discontinuation of trial medication intake). Only a trained CIBIC rater performed the test.
For ordinal categorical variables such as the CIBIC-plus score, the Van Elteren test controlling for investigator was used for the between group comparison. For the nominal data (e.g., events rates), the Cochran-Mantel-Haenszel test for general association controlling for investigator was used. A linear contrast on the proportion of patients that stay the same or improve was used to test for increasing response with increasing dose.

[2] = tested on: Patients diagnosed with Alzheimer's Disease; test: ADAS-cog/11 cognitive subscale, 5-month placebo-controlled trial; assay type: in vivo, human; settings: for ADAS-cog/11 responders, change ≦ 0 points, % / ADAS-cog/11 responders, change ≦ −4 points, % / ADAS-cog/11 responders, change ≦ −7 points, % / ADAS-cog/11 responders, change ≦ −10 points, %: Month 5
Description: as §1
The ADAS consists of two parts—a cognitive subscale and a behavioral subscale. The behavioral subscale was not be used in this study. The cognitive subscale, the ADAS--cog-11, consisted of Word Recall and Word Recognition memory tests, Object and Finger Naming, Commands, Constructional Praxis, Ideational Praxis, Orientation, Remembering Test Instructions, Spoken language Ability, Comprehension of Spoken language and Word Finding Difficulty was the primary variable in this study.
The ADAS was performed at visits 1, 2, 3, 4 and 5 (screening, baseline, week 4, week 13 and month 5 or upon early discontinuation of trial medication intake). For word recall and word recognition two parallel wordlists, list A and list B were employed. List A was used at visits 1 and 3, List B at visits 2, 4, and 5 or upon early discontinuation of trial medication intake. For practical reasons the words for word recognition was presented only once. The total score of the 11 cognitive items on the original ADAS cognitive subscale (ADAS-cog/11, Range: 0-70) was recorded.
Between treatment groups comparisons (with particular focus on differences from placebo) were done at each scheduled time interval and for each endpoint imputation scheme. These comparisons will be based on the change from baseline scores for efficacy parameters with baseline (e.g., ADAS-cog/11) and the original scored for efficacy parameters without baseline e.g., CIBIC-plus).
For continuous data, a two-way analysis of variance (ANOVA) model with treatment and investigator as factors were used to compare the treatment groups for the change from baseline data. The interaction between treatment and investigator was examined. The impact of the baseline score on change from baseline was evaluated. […] If the parametric methods were deemed inappropriate (normality assumption violated), nonparametric methods such as two-way ANOVA on ranked data, Van Elteren test, controlling for investigator, was used. Following ANOVA, Fisher's LSD procedure was used for pairwise comparisons between each galanthamine group and the placebo group. A linear contrast on the main effect for treatment was used to test the dose response relationship.

[3] = tested on: Patients diagnosed with Alzheimer's Disease; test: Neuropsychiatric Inventory (NPI); assay type: in vivo, human
Description: as §1
Neuropsychiatric behavior was monitored by a test known as The Neuropsychiatric Inventory (NPI) (Cummings, J. L. et al., Neurology, 44: 2308-2314, 1994). The NPI covers 10 domains of behaviors reported in patients with Alzheimer's Disease: delusions, hallucinations, agitation/aggression, dysphoria, anxiety, euphoria, apathy, disinhibition, irritability/lability and aberrant motor behavior. For each domain abnormal behavior can be absent (score 0) or present. If present, the frequency and severity of abnormal behavior is rated based on answers to a set of subquestions regarding behaviors relevant to that domain. Severity was rated 1 to 3 as mild, moderate or marked. Frequency was rated 1 to 4 as occasionally, often, frequently and very frequently. The product of frequency and severity (maximum score=12) was calculated for each domain. A total of NPI was calculated as the sum of the frequency and severity products (maximum score=120). The NPI was performed at visits 2, 3, 4 and 5 (baseline, week 4, week 13, and month 5 or upon early discontinuation of trial medication).

[4] = tested on: humans; settings: cited from earlier work

COc1ccc2c3c1O[C@H]1C[C@@H](O)C=C[C@@]31CCN(C)C2 [GAL, galantamine]
CIBIC-plus at Month 5 improved/no change, % of patients ([1]; 8 mg/day, LOCF): (53%) | CIBIC-plus at Month 5 improved/no change, % of patients ([1]; 8 mg/day, observed case): (51%) | CIBIC-plus at Month 5 improved/no change, % of patients ([1]; 16 mg/day, LOCF): (66%)***^† | CIBIC-plus at Month 5 improved/no change, % of patients ([1]; 16 mg/day, observed case): (68%)***^† | CIBIC-plus at Month 5 improved/no change, % of patients ([1]; 16 mg/day, observed case, listed as galantamine): 68% | CIBIC-plus at Month 5 improved/no change, % of patients ([1]; 24 mg/day, LOCF): (64%)***^‡ | CIBIC-plus at Month 5 improved/no change, % of patients ([1]; 24 mg/day, observed case): (64%)***^‡ | CIBIC-plus at Month 5 improved/no change, % of patients ([1]; 24 mg/day, observed case, listed as galantamine): 64% | Change from baseline in ADAS-cog/11 at Month 5, Mean ([2]; 8 mg/day, LOCF): 0.4 | ADAS-cog/11 responders, change ≦ 0 points, % ([2]; 8 mg/day): (46.5) % | ADAS-cog/11 responders, change ≦ −4 points, % ([2]; 8 mg/day): (25.7) % | ADAS-cog/11 responders, change ≦ −7 points, % ([2]; 8 mg/day): (13.9) % | ADAS-cog/11 responders, change ≦ −10 points, % ([2]; 8 mg/day): (5.9) % | Change from baseline in ADAS-cog/11 at Month 5, Mean ([2]; 8 mg/day, observed case): 0.1 | Change from baseline in ADAS-cog/11 at Month 5, Mean ([2]; 16 mg/day, LOCF): −1.4 | ADAS-cog/11 responders, change ≦ 0 points, % ([2]; 16 mg/day): (65.4)***^‡ % | ADAS-cog/11 responders, change ≦ −4 points, % ([2]; 16 mg/day): (35.6)***♦ % | ADAS-cog/11 responders, change ≦ −7 points, % ([2]; 16 mg/day): (15.9)** % | ADAS-cog/11 responders, change ≦ −10 points, % ([2]; 16 mg/day): (7.2) % | ADAS-cog/11 responders, change ≦ −7 points, % ([2]; 16 mg/day, listed as galantamine): 15.9% | Change from baseline in ADAS-cog/11 at Month 5, Mean ([2]; 16 mg/day, observed case): −1.5 | Change from baseline in ADAS-cog/11 at Month 5, Mean ([2]; 24 mg/day, LOCF): −1.4 | ADAS-cog/11 responders, change ≦ 0 points, % ([2]; 24 mg/day): (64.9)***^‡ % | ADAS-cog/11 responders, change ≦ −4 points, % ([2]; 24 mg/day): (37.0)***^† % | ADAS-cog/11 responders, change ≦ −7 points, % ([2]; 24 mg/day): (22.3)***♦♦ % | ADAS-cog/11 responders, change ≦ −10 points, % ([2]; 24 mg/day): (10.4)** % | ADAS-cog/11 responders, change ≦ −7 points, % ([2]; 24 mg/day, listed as galantamine): 22.3% | Change from baseline in ADAS-cog/11 at Month 5, Mean ([2]; 24 mg/day, observed case): −1.8 | Change in Total NPI score from baseline at Month 5, Mean ([3]; 8 mg/day, LOCF): 2.3 | Change in Total NPI score from baseline at Month 5, Mean ([3]; 8 mg/day, observed case): 2.3 | Change in Total NPI score from baseline at Month 5, Mean ([3]; 16 mg/day, LOCF): −0.1 | Change in Total NPI score from baseline at Month 5, Mean ([3]; 16 mg/day, observed case): −0.1 | Change in Total NPI score from baseline at Month 5, Mean ([3]; 24 mg/day, LOCF): −0.0 | Change in Total NPI score from baseline at Month 5, Mean ([3]; 24 mg/day, observed case): −0.1 | Passing the blood-brain barrier ([4]; humans): capable of passing the blood-brain barrier in humans | Side effects ([4]; therapeutically effective dosages): no severe side effects
